Measurements reported in PubChem BioAssay AID624167 (Sanford-Burnham Center for Chemical Genomics, 2012).
Calls of active or inactive are those of the source.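 How the source made its calls: active means mean IC50 for reducing PEG3 promoter reporter signal at or below a set limit, with IC50 above the limit in both counter screens; inactive means the rest, including counter screen hits.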

What was measured:
Experiment in all cases: Peg3 promoter luciferase inhibitors, potency, dose response, cell-based, HeLa, CREF/GAPDH counter-screen panel (AID 624167)
Rat fibroblasts (CREF) = details: CREF/GAPDH counter-screens
PEG-3 [1] = target: PEG-3 (UniProt Q6IN02); details: HeLa PEG-Prom luciferase reporter, overnight, CREF/GAPDH counter-screens, mean of runs
PEG-3 [2] = details: HeLa PEG-Prom luciferase reporter, overnight, CREF/GAPDH counter-screens
[3] = run 1, dose range 1, individual replicate IC50 per panel
[4] = run 2, dose range 1, individual replicate IC50 per panel

Sequence of PEG-3 (UniProt Q6IN02) (Q6IN02 whole entry, looked up): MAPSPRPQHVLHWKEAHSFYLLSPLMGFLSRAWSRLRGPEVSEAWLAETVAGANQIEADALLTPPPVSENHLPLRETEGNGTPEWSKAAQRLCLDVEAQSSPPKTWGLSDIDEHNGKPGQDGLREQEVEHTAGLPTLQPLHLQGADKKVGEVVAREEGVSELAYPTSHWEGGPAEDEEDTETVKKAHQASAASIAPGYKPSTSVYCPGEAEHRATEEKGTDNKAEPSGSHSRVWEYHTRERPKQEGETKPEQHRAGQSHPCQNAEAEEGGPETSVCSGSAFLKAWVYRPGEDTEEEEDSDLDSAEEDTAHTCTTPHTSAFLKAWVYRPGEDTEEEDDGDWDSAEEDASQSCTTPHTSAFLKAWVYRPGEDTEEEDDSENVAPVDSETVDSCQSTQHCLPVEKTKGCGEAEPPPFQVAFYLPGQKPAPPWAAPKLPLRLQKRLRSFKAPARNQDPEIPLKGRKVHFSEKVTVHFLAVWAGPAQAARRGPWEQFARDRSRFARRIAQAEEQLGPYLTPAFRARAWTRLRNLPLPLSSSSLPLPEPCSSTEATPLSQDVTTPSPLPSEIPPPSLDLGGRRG

Row | SMILES | IC50 (Rat fibroblasts (CREF); mean of runs) | IC50 (Rat fibroblasts (CREF); [3]) [nM] | IC50 (Rat fibroblasts (CREF); [4]) [nM] | IC50 (PEG-3 [1]) | IC50 (PEG-3 [2]; [3]) [nM] | IC50 (PEG-3 [2]; [4]) [nM]
1 | CN(C)c1ccc(/C=C(\C#N)c2ccccn2)cc1 | 639 nM | 531 | 747 | 4320 nM | 4250 | 4380
2 | CCCSc1ccc2nc(-c3ccccc3)cn2c1 | 1530 nM | 1040 | 2030 | 8110 nM | 7010 | 9200
3 | O=c1c2ccccc2sc2ccc(C#CC3(O)CCCCC3)cc12 | 1810 nM | 1360 | 2270 | inactive | 2930 | > 100000
4 | CN(C)c1ccc(NC(=S)c2ccccn2)cc1 | 1200 nM | 1250 | 1150 | 2580 nM | 2190 | 2970
5 | Cc1cc(C(=O)CN2C(=O)c3ccccc3S2(=O)=O)c(C)n1CC1CCCO1 (stereo not drawn) | 3910 nM | 1950 | 5860 | 568 nM | 760 | 375
6 | CCCN1C=CC(=C2C(=O)c3ccccc3C2=O)C=C1 | 538 nM | 469 | 606 | 538 nM | 783 | 292
7 | CCC1(OC(=O)CN)C(=O)OCc2c1cc1n(c2=O)Cc2cc3ccccc3nc2-1 (stereo not drawn) | 1380 nM | 1070 | 1690 | 3340 nM | 3800 | 2880
8 | CN(C)c1ccc(Nc2nc(N)c3ccccc3n2)cc1 | 995 nM | 869 | 1120 | 3660 nM | 2510 | 4820
9 | CC(=O)CSc1ccc(-c2nc3cc(C)c(C)cc3[nH]2)cn1 | 2080 nM | 1790 | 2360 | 2020 nM | 2210 | 1840
10 | Cc1cccc(/C=N/Nc2ccc3ccccc3n2)c1 | 1410 nM | 2440 | 370 | 4180 nM | 3780 | 4580
11 | CC(=O)NC(c1ccc(N(C)C)cc1)c1cc(Cl)c2cccnc2c1O (stereo not drawn) | 53700 nM (inactive) | > 100000 | 7340 | 3760 nM | 3140 | 4370
12 | Cc1ccc(C(=O)O/N=C(\N)c2ccccn2)cc1 | 1570 nM | 1630 | 1500 | 6630 nM | 10300 | 2960
13 | Cc1ccc(C(=O)CN2C(=O)c3ccccc3S2(=O)=O)cc1 | 8720 nM | 8770 | 8680 | 6270 nM | 6120 | 6430
14 | O=c1cc(-c2ccc(O)cc2)oc2ccc3ccccc3c12 | 1230 nM | 883 | 1570 | 4080 nM | 4650 | 3520
15 | Cc1ccc2nc(C)cc(Nc3ccc([N+](=O)[O-])cc3)c2c1 | 8480 nM | 8420 | 8540 | 8000 nM | 10600 | 5380
16 | CCN(CCO)c1ccc(N=Nc2cc(C)[nH]n2)cc1 | 2240 nM | 1520 | 2970 | 4610 nM | 3000 | 6220
17 | CCC(=O)NC(c1cccs1)c1cc(Cl)c2cccnc2c1O (stereo not drawn) | 842 nM | < 100000 | 842 | 4680 nM | 4970 | 4390
18 | Cc1ccc2nc(NC(=O)c3ccccn3)sc2c1 | 830 nM | 564 | 1100 | 1240 nM | 1290 | 1180
19 | O=[N+]([O-])c1ccc(-c2ccc(/C=N/Nc3nc(NCc4ccccc4)nc(N4CCOCC4)n3)o2)cc1 | 8540 nM | 9400 | 7680 | 5660 nM | 6130 | 5180
20 | COC1=CC(=O)c2c(ccc3ncnc(N)c23)C1=O | 935 nM | 875 | 995 | 1010 nM | 1480 | 547
21 | Cc1ccc(-c2nc(-c3ccccn3)no2)cc1 | 480 nM | 288 | 672 | 571 nM | 479 | 663
22 | Cc1cc(C2=NNC(=NC3CC3)SC2)c(C)n1-c1ccccc1F | 3300 nM | 2720 | 3890 | < 200 nM | < 200 | < 200
23 | Cc1ccc(-c2nnc(SCC(=O)Nc3ccccc3F)o2)cc1 | 3270 nM | 3450 | 3080 | 1540 nM | 1450 | 1640
24 | Cc1ccc2nc(-c3ccccc3)cn2c1 | 783 nM | 619 | 948 | 1010 nM | 1020 | 1010

Row | SMILES | IC50 (Rat fibroblasts (CREF); mean of runs) | IC50 (Rat fibroblasts (CREF); [3]) [nM] | IC50 (Rat fibroblasts (CREF); [4]) [nM] | IC50 (PEG-3 [1]) | IC50 (PEG-3 [2]; [3]) [nM] | IC50 (PEG-3 [2]; [4]) [nM]
25 | Cc1ccc(-c2cn3cc(C)ccc3n2)cc1 | 1280 nM | 1010 | 1540 | 722 nM | 729 | 715
26 | COc1cc(SC)ccc1C(=O)Nc1nc(C)cs1 | 516 nM | 542 | 490 | 2110 nM | 1690 | 2520
27 | Cc1cc(/C=N/Nc2ncnc(N)c2[N+](=O)[O-])c(C)n1-c1ccccc1 | 1790 nM | 1540 | 2040 | 11000 nM | 9880 | 12000
28 | CCCS(=O)(=O)c1cnc(C2COc3ccccc3O2)nc1N (stereo not drawn) | 10800 nM | 9070 | 12500 | 3780 nM | 2520 | 5040
29 | O=C(NCCc1ccccc1)c1ccc2c(c1)OCO2 | 6290 nM | 6890 | 5680 | 4930 nM | 3970 | 5890
30 | Cc1nc(SCC(=O)Nc2nc3ccccc3s2)c(C#N)c(C)c1C | 7900 nM | 232 | 15600 | 4130 nM | 8050 | < 200
31 | Cc1cc(C(=O)CN2C(=O)c3ccccc3S2(=O)=O)c(C)n1-c1ccccc1 | 7330 nM | 6790 | 7880 | 3360 nM | 2980 | 3750
32 | Cc1cccc(CS(=O)(=O)c2ncc(Cl)c(C(=O)Nc3ccc(F)cc3)n2)c1 | 2020 nM | > 80000 | 2020 | 4730 nM | 6010 | 3440
33 | OCC1OC(n2ccc3c(NO)ncnc32)C(O)C1O (stereo not drawn) | 3210 nM | 2780 | 3640 | 378 nM | 433 | 323
34 | COc1ccc(C(=O)/C=C/Nc2ccccn2)cc1 | 3610 nM | 3450 | 3770 | 2600 nM | 2020 | 3180
35 | CCCOc1ccc2cc(-c3ccccn3)c(=O)oc2c1 | 1330 nM | 1090 | 1580 | 3510 nM | 2050 | 4960
36 | O=C(O)c1cccc(COc2ccc3c(c2)CCC3)c1 | 10300 nM | 10700 | 9920 | 1350 nM | 823 | 1880
37 | COc1cc(NS(C)(=O)=O)ccc1Nc1c2ccccc2nc2ccccc12 | 4970 nM | 8610 | 1330 | 10700 nM | 11000 | 10400
38 | O=C(CCl)Nc1ccccc1Sc1ccc(Cl)cc1 | 8110 nM | 8040 | 8180 | 10100 nM | 13000 | 7060
39 | Cc1csc(NC(=O)c2ccc(N3CCCC3=O)cc2)n1 | 4510 nM | 2850 | 6170 | 5930 nM | 5340 | 6530
40 | O=C(/C=C/Nc1ccccc1Br)c1ccccn1 | 506 nM | 414 | 599 | 1100 nM | 895 | 1310
41 | O=C(NCCc1ccccc1)c1ccc2c(c1)OCCO2 | 1730 nM | 1360 | 2100 | 636 nM | 646 | 625
42 | COc1cccc2nc3c(C(=O)NCCN(C)C)cccc3cc12 | 8720 nM | 12000 | 5440 | 9140 nM | 11200 | 7030
43 | O=C(Nc1ncc([N+](=O)[O-])s1)c1ccc2c(c1)OCO2 | 10800 nM | 8900 | 12800 | 2210 nM | 2010 | 2410
44 | COC(CNC(=O)c1ccc2c3c(onc13)-c1ccccc1C2=O)OC | 18400 nM | 17600 | 19200 | 7480 nM | 9320 | 5650
45 | CC(=O)n1cc(N(C(=O)CCl)c2ccc(C)cc2)c2ccccc21 | 3960 nM | 5380 | 2530 | 9360 nM | 11300 | 7380
46 | CN(c1ccc2nc3ccccc3c(=O)n2n1)C1CCCCC1 | 772 nM | 789 | 755 | 3970 nM | 3000 | 4940
47 | NC(Cc1ccc(F)cc1)c1csc(Nc2cc(Oc3ccccc3)ncn2)n1 (stereo not drawn) | 17200 nM | 21300 | 13100 | 10200 nM | 13200 | 7160
48 | COc1ccc(C(=O)NNC(=O)c2ccccn2)cc1 | 1650 nM | 1210 | 2090 | 1760 nM | 2680 | 849
